The values below come from ChEMBL document CHEMBL1201862, “PubChem BioAssay data set” (2004).

Among the test systems are NCI-H226; EKVX; Malme-3M; OVCAR-8; NCI-H23; M19-MEL; OVCAR-5; SK-MEL-28; HCT-15; NCI-H460; SF-295; SNB-19; OVCAR-4; HCC 2998; DMS-114; HT-29; UACC-257; COLO 205; HOP-92; SR.
What all share (assay): NCI anticancer screen, dose series, 48 h

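Growth conditions: 96-well plates. Treatment: test compound, 48 hours, 5 concentrations. Analysis: linear interpolation between bracketing concentrations; unreached endpoints set to highest concentration. GI50: concentration for 50% inhibition of growth.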 Activity calls are given as the source filed them. Rule as the data show it: active = GI50 up to about 1.1 µM and inactive = higher. Where only a bound is given, the exact number is not on record here.

Turning to `Cc1cc2c(c(C(=O)O)c1C)-c1cccc(F)c1C2=O`, the GI50 with NCI-H226 is 55.1 µM (inactive); with EKVX, > 100 µM (inactive); with Malme-3M, > 100 µM (inactive); in the assay on OVCAR-8, > 100 µM (inactive); with NCI-H23 it was > 100 µM (inactive); in the assay with M19-MEL it was > 100 µM (inactive). Moreover, the GI50 in the assay on OVCAR-5 was > 100 µM (inactive); in the assay with SK-MEL-28, > 100 µM (inactive); with HCT-15, greater than 100 µM; in the assay on NCI-H460, > 100 µM (inactive); in the assay on SF-295 it was > 100 µM (inactive); in the assay with SNB-19, 67.8 µM (inactive). In addition, the GI50 in the assay with OVCAR-4, with HCC 2998, in the assay with DMS-114, with HT-29, in the assay on UACC-257 and with COLO 205 was > 100 µM (inactive) in each case.
Consider `N#Cc1cccc(NC(=O)c2ccc(C(=O)O)c(C(=O)c3ccc(C(=O)O)c(C(=O)Nc4cccc(C#N)c4)c3)c2)c1`, for which the GI50 with NCI-H226, in the assay on EKVX, with Malme-3M, with OVCAR-8, with NCI-H23 and in the assay on M19-MEL was > 100 µM (inactive) in each case. Further, the GI50 in the assay on OVCAR-5 was > 100 µM (inactive); in the assay on HCT-15 it was greater than 100 µM; in the assay on NCI-H460 it was > 100 µM (inactive); in the assay with SF-295 it was > 100 µM (inactive); in the assay with SNB-19, > 100 µM (inactive); in the assay on OVCAR-4 it was > 100 µM (inactive). The GI50 with DMS-114, in the assay with HT-29, with UACC-257, with HOP-92 and in the assay with COLO 205 was > 100 µM (inactive) each time.
In the case of `CC(=O)NS(=O)(=O)c1ccc(NC(=O)COC(=O)c2cccc3c(=O)c4ccccc4[nH]c23)cc1`, the GI50 with NCI-H226, with EKVX, in the assay on Malme-3M, in the assay with OVCAR-8, with NCI-H23 and in the assay with M19-MEL was > 100 µM (inactive) throughout. Besides, the GI50 in the assay on SK-MEL-28 is > 100 µM (inactive); with HCT-15 it was greater than 100 µM; with NCI-H460, > 100 µM (inactive); in the assay with SF-295, > 100 µM (inactive); with SNB-19 it was > 100 µM (inactive); in the assay on DMS-114 it was > 100 µM (inactive). Further, the GI50 with HT-29, in the assay with UACC-257 and with COLO 205 was > 100 µM (inactive) each time.
`COC(=O)C(=O)C(C(=O)C(=O)Nc1ccc(F)cc1)c1nc2ccc([N+](=O)[O-])cc2nc1O` (stereo not given): the GI50 with NCI-H226, in the assay with EKVX, with Malme-3M, in the assay with OVCAR-8, with SR and in the assay on NCI-H23 was > 100 µM (inactive) each time. For the same molecule, the GI50 was > 100 µM (inactive) in the assay with M19-MEL; > 100 µM (inactive) in the assay with OVCAR-5; > 100 µM (inactive) in the assay on SK-MEL-28; greater than 100 µM in the assay with HCT-15; > 100 µM (inactive) with NCI-H460; > 100 µM (inactive) with SF-295. The GI50 in the assay with SNB-19, in the assay on OVCAR-4, with HCC 2998, in the assay on HT-29, in the assay with UACC-257 and in the assay with HOP-92 was > 100 µM (inactive) each time. Further, the GI50 in the assay with COLO 205 is > 100 µM (inactive).
Consider `COc1ccccc1NC(=O)CC(=O)NNCC(=O)Nc1nc(-c2ccccc2)cs1`, for which the GI50 was 40.6 µM (inactive) in the assay on NCI-H226; > 100 µM (inactive) with EKVX; > 100 µM (inactive) in the assay with OVCAR-8; > 100 µM (inactive) with NCI-H23; > 100 µM (inactive) in the assay on M19-MEL; > 100 µM (inactive) in the assay on SK-MEL-28. Also, the GI50 in the assay with NCI-H460 was > 100 µM (inactive); with SF-295 it was > 100 µM (inactive); in the assay on SNB-19, > 100 µM (inactive); in the assay on OVCAR-4, > 100 µM (inactive); with HCC 2998, 4.1 µM (inactive); in the assay on DMS-114, > 100 µM (inactive). Besides, the GI50 in the assay with HT-29 and in the assay with COLO 205 was > 100 µM (inactive) throughout.
`O=C(CC1(O)C(=O)Nc2ccc([N+](=O)[O-])cc21)c1ccncc1` (stereo not given): the GI50 is 83 µM (inactive) in the assay with NCI-H226; > 100 µM (inactive) in the assay with EKVX; 21.8 µM (inactive) in the assay with Malme-3M; 46.2 µM (inactive) with OVCAR-8; 22.1 µM (inactive) with NCI-H23; 20.4 µM (inactive) in the assay on M19-MEL. For the same molecule, the GI50 in the assay on OVCAR-5 is > 100 µM (inactive); with SK-MEL-28 it was 32.3 µM (inactive); in the assay on HCT-15, 83.8 µM; in the assay with NCI-H460 it was 48.6 µM (inactive); with SF-295, 80.2 µM (inactive); in the assay with SNB-19, 54.3 µM (inactive). Further, the GI50 was 22.1 µM (inactive) with OVCAR-4; 67 µM (inactive) in the assay on HCC 2998; 30.5 µM (inactive) in the assay with DMS-114; 34 µM (inactive) in the assay on HT-29; 17.9 µM (inactive) with UACC-257; 77.1 µM (inactive) in the assay on COLO 205.
As to `CC(c1ccccc1)C(O)S(=O)(=O)O` (stereo not given), the GI50 in the assay on NCI-H226, in the assay on EKVX, with Malme-3M, in the assay on OVCAR-8, with NCI-H23 and with M19-MEL was > 100 µM (inactive) each time. Besides, the GI50 with OVCAR-5 is > 100 µM (inactive); in the assay with SK-MEL-28, > 100 µM (inactive); with HCT-15 it was greater than 100 µM; in the assay with NCI-H460, 88.3 µM (inactive); in the assay with SF-295 it was > 100 µM (inactive); in the assay on SNB-19, > 100 µM (inactive). Further, the GI50 was > 100 µM (inactive) in the assay on OVCAR-4; 98.9 µM (inactive) in the assay with DMS-114; > 100 µM (inactive) in the assay with HT-29; > 100 µM (inactive) with UACC-257; > 100 µM (inactive) in the assay on HOP-92; > 100 µM (inactive) with COLO 205.
Take `NC1C[C@H](n2cc(/C=C/Br)c(=O)[nH]c2=O)C[C@@H]1CO` (stereo not given in full): the GI50 in the assay on NCI-H226, in the assay on EKVX, in the assay with OVCAR-8, with NCI-H23, in the assay on M19-MEL and in the assay on SK-MEL-28 was > 100 µM (inactive) in each case. For the same molecule, the GI50 in the assay on HCT-15 was greater than 100 µM; in the assay on NCI-H460 it was > 100 µM (inactive); in the assay on SF-295, > 100 µM (inactive); with SNB-19, > 100 µM (inactive); with OVCAR-4 it was > 100 µM (inactive); with HCC 2998, > 100 µM (inactive). The GI50 in the assay with DMS-114, in the assay with HT-29, with UACC-257 and in the assay on COLO 205 was > 100 µM (inactive) in each case.
